Test results from patent publication EP4620954A1, “CDK2 INHIBITOR, PREPARATION METHOD THEREFOR, AND USE THEREOF” (Shandong Luye Pharmaceutical Co., Ltd., priority 2022, dated 2024).
Like-named read-outs stand apart in the source and are kept apart here.

How the values were obtained:
CDK1/Cyclin B = target: T1, CDK1/Cyclin B (Homo sapiens, UniProt P06493); test: CDK1 kinase activity assay (TR-FRET); type: biochemical
T1 construct: purchased Invitrogen PR4768C
Procedure: (§1) Compounds were dissolved in DMSO and serially diluted 3-fold to generate 11 concentrations. 100 nL of each compound was added to 384-well plates, followed by the addition of 5 µL of 2× CDK2/Cyclin E1 or CDK1/Cyclin B enzyme mixed solution. 5 µL of buffer (50 mM Hepes (pH 7.5), 10 mM MgCl2, 1 mM EDTA, 0.01% Brij-35, 2 mM DTT (prepared freshly)) was added to the complete inhibition control wells. The plates were centrifuged at 1000 rpm for 30 s and incubated at 23 °C for 15 min. Then, 5 µL of 2× MLight-MBP peptide (containing 10 µM ATP) was added to each well of each assay plate. The plates were centrifuged again at 1000 rpm for 30 s and incubated at 23 °C for 90 min.
After the incubation was completed, the reaction was stopped with a detection buffer containing 15 mM EDTA and 2 nM Eu-anti-P-MBP antibody. After centrifugation at 1000 rpm for about 1 min, the plates were incubated at 23 °C for 60 min and read on Perkin Elmer Envision.
(§2) The IC50 values of the compounds were calculated using GraphPad Prism nonlinear fitting equation. Table 1. Kinase activity assay

HCT116 cells = test: Antagonistic effect assay against HCT116 cell proliferation (CellTitle-Glo); type: cell-based; conditions: Homo sapiens, HCT-116, 72 h treatment, 0.01-10.00 µM, read-out: Antiproliferative IC50
Procedure: Frozen HCT116 cells were rapidly transferred from liquid nitrogen to a 37 °C water bath and rapidly shaken for thawing. The cell suspension was transferred to a 15 mL centrifuge tube and centrifuged at 1500 rpm for 5 min, and the supernatant was discarded. The cell pellet was resuspended in RPMI-1640 complete medium (containing 10% fetal bovine serum and 1% penicillin/streptomycin) and transferred to a cell culture dish containing 10 mL of medium. The cells were cultured in an incubator at 37 °C/5% CO2. The cells were passaged after adhesion to the wall.
HCT116 cells in the logarithmic growth phase and in good condition were taken, digested with a trypsin solution, resuspended in a certain amount of RPMI-1640 complete medium to form a single-cell suspension, counted on a cell counting plate, and seeded into a 96-well white plate at a density of 800 cells/well. The plate was left to stand for 5 min and then incubated in an incubator at 37 °C/5% CO2 overnight. The next day, the cells were treated with the compound at different concentrations, and the control group was treated with DMSO at the corresponding concentration. The compound, dissolved in DMSO, was diluted in RPMI-1640 complete medium at a ratio of 1:1000 to obtain final concentrations of 10.00 µM, 3.33 µM, 1.11 µM, 0.37 µM, 0.12 µM, 0.04 µM, and 0.01 µM. Each group was set up with 3 replicate wells, and 100 µL of the treatment solution was added to each well. The plate was incubated in an incubator at 37 °C/5% CO2 for 72 h.
After 72 h of treatment, the CellTitle-Glo assay was performed. 100 µL of CellTitle-Glo solution was added to each well of the control and treatment groups. The plate was mixed on an oscillator for 2 min to induce cell lysis. The 96-well plate was incubated at room temperature for 10 min to stabilize the luminescence signal value. The luminescence signal was measured using a microplate reader. The DMSO-treated cell group was used as the control group, and 50% inhibitory concentration (IC50) was calculated according to the median effect equation as follows: [formula]
The IC50 values of the compounds were calculated using GraphPad Prism nonlinear fitting equation. Table 2. Results for the inhibitory effect of the compounds of the present disclosure on HCT116 cell proliferation

CDK2/Cyclin E1 = target: T2, CDK2/Cyclin E1 (Homo sapiens, UniProt P24941); test: CDK2 kinase antagonistic activity assay (TR-FRET); type: biochemical
T2 construct: purchased Invitrogen PV6296
Procedure: as §1
After the incubation was completed, the reaction was stopped with a detection buffer containing 15 mM EDTA and 2 nM Eu-anti-P-MBP antibody. After centrifugation at 1000 rpm for about 1 min, the plates were incubated at 23 °C for 60 min and read on Perkin Elmer Envision. The TR-FRET ratio (value at 665 nm/value at 615 nm) was automatically calculated by Envision.
as §2

[1] = In-vitro liver microsomal stability, rat; type: in vitro ADME; conditions: SD rat liver microsomes 0.5 mg/mL, 1 µM, NADPH 1 mM, 37 °C
Procedure: (§3) Method: The metabolic stability of test substances was evaluated by using human, dog, and SD rat liver microsomes. The test substances were incubated with liver microsomes from different species and NADPH in a water bath at 37 °C. In the incubation system, the final concentration of the test or control sample was 1 µM, the final concentration of liver microsomes was 0.5 mg/mL, the final concentration of NADPH was 1 mM, and the final concentration of MgCl2 was 3 mM. At designated time points (5 min, 10 min, 20 min, 30 min, and 60 min), the reaction was stopped by adding a cold acetonitrile solution containing tolbutamide (at a concentration of 200 ng/mL) as an internal standard. For the 0-min sample, the stop solution was added before the addition of the NADPH working solution. Testosterone and dextromethorphan were used as positive control samples in the same conditions to assess the stability and reliability of the system. After sample pretreatment, semiquantitative analysis was performed using the LC-MS/MS method. The retention times of the analytes and internal standard, the acquisition of chromatograms and the integration of chromatograms were processed using software Analyst (AB Sciex, Framingham, Massachusetts, USA). The remaining percentage of the test samples after 60 min of incubation was calculated, and the test results are shown in Table 3. Table 3. Test data for the compounds of the present disclosure in human, dog, and rat liver microsomes

[2] = In-vitro liver microsomal stability, human; type: in vitro ADME; conditions: human liver microsomes 0.5 mg/mL, 1 µM, NADPH 1 mM, 37 °C
Procedure: as §3

[3] = Permeability and transporter substrate evaluation, Caco-2 monolayer; type: in vitro ADME; conditions: human, Caco-2, 2.00 µM, 120 min
Procedure: Cell: Caco-2 cells Instrument: water purification equipment, ELGA LabWate; biosafety cabinet, Nuaire; thermostatic CO2 incubator, Thermo; microplate reader, PerkinElmer; LC-MS/MS, AB SCIEX. Method: The purpose of this study was to determine the two-way permeability of the compounds and evaluate whether they are effluxed and transported by P-glycoprotein (P-gp) using a Caco-2 monolayer cell model. In the experiment, Caco-2 cells were seeded into a 96-well cell plate and cultured for 24 consecutive days for the transport experiment. The compounds were administered bidirectionally at a concentration of 2.00 µM, with or without verapamil. After 120 min of incubation, the samples at the apical end A and the basal end B were collected. The content of the test samples in each sample was measured using the liquid chromatography-tandem mass spectrometry (LC-MS/MS) method. The apparent permeability coefficient and the efflux rate were calculated. Two experimental systems were used successively in this part, with the reference compound (PF-07104091) included. Table 4. Permeability test results

[4] = TR-FRET, peptide mix containing 10 µM ATP, 90 min at 23 °C, read-out: CDK1/Cyclin B1 IC50
[5] = TR-FRET, peptide mix containing 10 µM ATP, 90 min at 23 °C, read-out: CDK2/Cyclin E1 IC50
[6] = Caco-2, Table 5 experimental system
[7] = Caco-2, Table 4 experimental system

T1 sequence (P06493 whole entry): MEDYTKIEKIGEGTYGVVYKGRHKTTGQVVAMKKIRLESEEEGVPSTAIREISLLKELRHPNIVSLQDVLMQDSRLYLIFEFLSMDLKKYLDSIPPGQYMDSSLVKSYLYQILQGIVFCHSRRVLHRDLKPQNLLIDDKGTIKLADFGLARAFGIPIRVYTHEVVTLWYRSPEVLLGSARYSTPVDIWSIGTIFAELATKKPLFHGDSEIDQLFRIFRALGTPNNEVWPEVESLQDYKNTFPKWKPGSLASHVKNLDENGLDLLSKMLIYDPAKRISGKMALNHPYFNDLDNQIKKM
T1 sequence (P14635 whole entry partner): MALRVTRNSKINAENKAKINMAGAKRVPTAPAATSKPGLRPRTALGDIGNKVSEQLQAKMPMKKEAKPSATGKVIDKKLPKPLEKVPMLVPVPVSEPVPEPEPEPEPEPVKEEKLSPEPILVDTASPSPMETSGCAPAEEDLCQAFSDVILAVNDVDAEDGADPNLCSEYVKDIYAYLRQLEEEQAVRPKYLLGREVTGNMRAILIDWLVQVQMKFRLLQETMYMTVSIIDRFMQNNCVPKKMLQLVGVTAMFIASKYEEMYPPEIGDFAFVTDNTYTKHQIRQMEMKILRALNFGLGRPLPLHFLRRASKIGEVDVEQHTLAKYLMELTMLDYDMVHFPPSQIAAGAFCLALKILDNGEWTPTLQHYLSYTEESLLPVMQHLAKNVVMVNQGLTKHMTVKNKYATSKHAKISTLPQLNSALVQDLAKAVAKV

SMILES | IC50 (CDK1/Cyclin B; [4]) [nM] | IC50 (HCT116 cells) [nM] | IC50 (CDK2/Cyclin E1; [5]) [nM] | further results
COCc1cc(C(=O)Nc2cc([C@H]3CC[C@@H](OC(=O)NC(C)(C)C#N)C3)[nH]n2)n(C)n1 [Compound 5] | 845 | > 10000 |  | 
CC(C)NC(=O)O[C@@H]1CC[C@H](c2cc(NC3CCN(S(C)(=O)=O)CC3)n[nH]2)C1 [Compound 8] | 3110 | > 10000 |  | 
CCS(=O)(=O)Cc1cc(C(=O)Nc2cc([C@H]3CC[C@@H](OC(=O)NC(C)C)C3)[nH]n2)n(C)n1 [Compound 12] | 28.5 | 1860 | 0.61 | 
CC(C)NC(=O)O[C@@H]1CC[C@H](c2cc(NC(=O)c3cc(CS(=O)(=O)C4CC4)nn3C)n[nH]2)C1 [Compound 13] |  | 2150 | 3.37 | Remaining amount% at 60 min Rat [1]: 71.2%; IC50 (CDK1/Cyclin B): 48.2 nM; Remaining amount% at 60 min Human [2]: 80.0%
Cn1nc(CS(C)(=O)=O)cc1C(=O)Nc1cc([C@H]2CC[C@@H](OC(=O)N3CCC3(C)C)C2)[nH]n1 [Compound 16] |  | 847 | 0.16 | IC50 (CDK1/Cyclin B): 3.07 nM
CC1(C)CCN1C(=O)O[C@@H]1CC[C@H](c2cc(NC(=O)Cc3cccc(P(C)(C)=O)c3)n[nH]2)C1 [Compound 23] | 1850 |  | 5.01 | 
CC1(C)CCN1C(=O)O[C@@H]1CC[C@H](c2cc(NC(=O)Cc3ccc(N4CCCC4=O)cc3)n[nH]2)C1 [Compound 24] | 589 |  | 2.58 | Remaining amount% at 60 min Rat [1]: 22.8%; Remaining amount% at 60 min Human [2]: 15.4%
C=C(C)c1ccncc1O[C@@H]1CC[C@H](c2cc(NC(=O)Cc3cccc(P(C)(C)=O)c3)n[nH]2)C1 [Compound 25] | 11.2 |  | 3.09 | 
C=C(C)c1ccncc1O[C@@H]1CC[C@H](c2cc(NC(=O)Cc3ccc(N4CCCC4=O)cc3)n[nH]2)C1 [Compound 26] | 0.27 | 388 | 0.92 | 
CC1(C)CCN1C(=O)O[C@@H]1CO[C@H](c2cc(NC(=O)Cc3cccc(P(C)(C)=O)c3)n[nH]2)C1 [Compound 30] |  |  | 8.22 | 
C=C(C)c1ccncc1O[C@@H]1CO[C@H](c2cc(NC(=O)Cc3cccc(P(C)(C)=O)c3)n[nH]2)C1 [Compound 31] | 496 |  | 23.6 | 
COCc1cc(C(=O)Nc2cnc([C@H]3CC[C@@H](OC(=O)NC(C)C)C3)s2)n(C)n1 [Compound 36] |  |  | > 1000 | 
COCc1cc(C(=O)Nc2[nH]nc3c2C[C@@H](OC(=O)NC(C)C)CC3)n(C)n1 [Compound 41] |  |  | > 1000 | 
COCc1cc(C(=O)Nc2nnc([C@H]3CC[C@@H](OC(=O)NC(C)C)C3)s2)n(C)n1 [Compound 42] |  |  | > 1000 | 
CC(C)NC(=O)O[C@@H]1CC[C@H](c2cc(Nc3ccc(N4CCN(C)CC4)cn3)n[nH]2)C1 [Compound 49] |  | 1300 | 10.7 | Papp A→B at 2 h, 2 µM [3, 6]: 2.4 ×10⁻⁶ cm/s; Papp B→A at 2 h, 2 µM [3, 6]: 12.2 ×10⁻⁶ cm/s; efflux ratio at 2 h, 2 µM [3, 6]: 5.09; IC50 (CDK1/Cyclin B): 724 nM
CC(C)NC(=O)O[C@@H]1CC[C@H](c2cc(Nc3ccc(C4CCN(C)CC4)cn3)n[nH]2)C1 [Compound 51] |  | 3530 | 6.9 | IC50 (CDK1/Cyclin B): 154 nM
CC(C)NC(=O)O[C@@H]1CC[C@H](c2cc(Nc3ccc(N4CCN(CC(F)F)CC4)cc3)n[nH]2)C1 [Compound 127] |  | 9800 | 12.5 | 
CC(C)NC(=O)O[C@@H]1CC[C@H](c2cc(Nc3ccc(N4CCN(CC(F)(F)F)CC4)cc3)n[nH]2)C1 [Compound 128] |  | 9950 |  | IC50 (CDK2/Cyclin E1): 12.8 nM
CC(C)NC(=O)O[C@@H]1CC[C@H](c2cc(Nc3ccc(CN4CCN(C)CC4)c(F)c3)n[nH]2)C1 [Compound 134] |  | 1130 | 2.14 | Papp A→B at 2 h, 2 µM [3, 6]: 7.08 ×10⁻⁶ cm/s; Papp B→A at 2 h, 2 µM [3, 6]: 23.4 ×10⁻⁶ cm/s; efflux ratio at 2 h, 2 µM [3, 6]: 3.3; IC50 (CDK1/Cyclin B): 664 nM
CC(C)NC(=O)O[C@@H]1CC[C@H](c2cc(Nc3ccc(CN4CCNCC4)cc3)n[nH]2)C1 [Compound 136] | 1020 | 8430 | 5.53 | 
CCN1CCN(Cc2ccc(Nc3cc([C@H]4CC[C@@H](OC(=O)NC(C)C)C4)[nH]n3)cc2)CC1 [Compound 137] | 976 | 1510 | 3.74 | 
COCc1cc(C(=O)Nc2cc(C3CCC(OC(=O)NC(C)C)C3)[nH]n2)n(C)n1 (stereo not drawn) [PF-07104091, reference compound] |  |  |  | Papp A→B at 2 h, 2 µM [3, 7]: 0.106 ×10⁻⁶ cm/s; Papp B→A at 2 h, 2 µM [3, 7]: 25.5 ×10⁻⁶ cm/s; efflux ratio at 2 h, 2 µM [3, 7]: 241; Papp A→B at 2 h, 2 µM [3, 6]: 4.3 ×10⁻⁶ cm/s; Papp B→A at 2 h, 2 µM [3, 6]: 37 ×10⁻⁶ cm/s; efflux ratio at 2 h, 2 µM [3, 6]: 8.57
